In PMC8761912, “Cryptosporidium parvum Pyruvate Kinase Inhibitors With in vivo Anti-cryptosporidial Efficacy” (Frontiers in Microbiology, 2022):
Like-named read-outs stand apart in the source and are kept apart here. Marks after values point to notes of the source that are not given here.

Tests used:
[1] = target: recombinant CpPyK (rCpPyK) protein (Cryptosporidium parvum, UniProt Q5CSM7); test: rCpPyK enzymatic activity inhibition assay (ATP detection, Cell Titer-Glo luminescence); type: biochemical
Experimental: (§1) The in vitro enzymatic activity of the rCpPyK protein was determined by quantitating the amount of ATP produced by the transfer of a phosphate group from phosphoenolpyruvate to adenosine diphosphate (ADP) in the presence of varying concentrations of the recombinant protein (Figure 1A). A typical assay contained 0.5 mM phosphoenolpyruvate, 0.6 mM ADP, 50 mM Tris buffer pH 7.5, 60 mM MgSO4, 100 mM KCl, and varying concentrations of rCpPyK incubated for 3 h at room temperature. The ATP generated was detected in a reaction volume of 50 μl in white opaque-walled 96 well plates by the luciferase-based Cell Titer-Glo 2.0 reagent (Promega) following the manufacturer’s instructions. The enzyme kinetics of rCpPyK were determined by using varying phosphoenolpyruvate (0–8 mM) and ADP (0–2 mM) concentrations in an enzymatic reaction catalyzed by a fixed concentration of the recombinant protein (6 ng/μl). In all assays, reaction mixtures without rCpPyK were included as negative controls. Three independent assays were performed for each experiment, and samples were run in triplicate. The luminescence generated was recorded using a multi-mode microplate reader (Spectra Max iD3; Molecular Devices, United States). GraphPad PRISM® v8 software was used to fit the Michaelis–Menten model directly to the substrate-velocity data to determine the enzymatic kinetic parameters for rCpPyK.
The Diversity Set VI chemical library (Supplementary Table 1) was obtained from the National Cancer Institute (NCI)/Developmental Therapeutics Program (DTP) Open Repository collection of chemical compounds.^1 Compounds were individually reconstituted in molecular biology grade dimethyl sulfoxide (DMSO) from Sigma-Aldrich and stored at −20°C. From the library, 1,424 compounds were screened in 96-well plates using the rCpPyK catalyzed enzyme assay to identify potential CpPyK inhibitors. The reactions were performed in 50 μl reaction volume containing 0.5 mM phosphoenolpyruvate, 0.6 mM ADP, 50 mM Tris buffer pH 7.5, 60 mM MgSO4, 100 mM KCl, and 6 ng/μl of rCpPyK protein with or without compound. The concentration of DMSO in all reaction mixtures was 1% (v/v). Control reactions without rCpPyK protein were included for background subtraction. Following 3 h of incubation at room temperature, an equal volume of the Cell Titer-Glo 2.0 reagent was added to each well, and the luminescence produced was recorded as relative luminescence units (RLU) after 10 min of incubation using a multi-mode microplate reader (Spectra Max iD3; Molecular Devices, United States). The mean percent inhibition (MPI) of rCpPyK activity by each compound was derived by dividing the difference in luminescence (RLU) between the compound-treated wells and the DMSO-treated wells by the luminescence of the DMSO-treated wells and multiplying the product by 100:
(1) MPI=[(MeanRLUDMSO-treated-MeanRLUCompound-treated)÷MeanRLUDMSO-treated]×100.
Half maximal inhibitory concentration (IC50) values were determined by applying a non-linear regression analysis curve fit to the mean dose-response data for varying concentrations of each compound using GraphPad PRISM® v8. Reactions were performed in triplicate and repeated at least thrice.

[2] = In vitro compound cytotoxicity assay (WST-1); type: cell-based; settings: human, uninfected HCT-8 cells
Experimental: Compounds were tested for cytotoxicity in human ileocecal colorectal adenocarcinoma cells [HCT-8 (HRT-18); ATCC® CCL-244™, CVCL_2478] by using the cell proliferation reagent WST-1 (Roche) according to the manufacturer’s protocol. The WST-1 assay is a quantitative colorimetric assay for measurement of metabolically active cells. This assay is based on the reduction of the tetrazolium salt (WST-1) by viable cells. About 5 × 10^4 HCT-8 cells were seeded per well in 96-well plates and grown overnight in 200 μl of RPMI-1640 medium (without phenol red) (Gibco) supplemented with 2.5 g/L of glucose, 1 mM sodium pyruvate, 1.5 g/L of sodium bicarbonate, 10% heat-inactivated FBS (Gibco), and 1 × Antibiotic-Antimycotic (Gibco) at 37°C with 5% CO2 in a humidified incubator. Upon reaching 80–90% confluency, cells were treated with the chemical compounds reconstituted in DMSO for 24 h. The volume of DMSO was kept below 1% of the total culture volume in all the wells to avoid DMSO cytotoxicity. Control wells received equivalent volumes of DMSO used in the reconstituted compounds. After 24 h of culture, 10 μl of the WST-1 reagent was added to each well, and the plates were incubated for 1 h at 37°C with 5% CO2 under dark conditions. The plates were shaken thoroughly and 150 μl of the medium from each well was transferred to a new clear flat-bottom black 96-well plate (Corning). Absorbance was read at a test wavelength of 440 nm and a reference wavelength of 690 nm using a multi-mode microplate reader (Spectra Max iD3; Molecular Devices, United States). The mean percent toxicity (MPT) of each compound was derived by dividing the difference in absorbance (OD) between the compound-treated cells and the DMSO-treated cells by the absorbance from the DMSO-treated cells and multiplying the product by 100:
(2) MPT=[(MeanODDMSO-treated-MeanODCompound-treated)÷MeanODDMSO-treated]×100.
The half maximal cytotoxic concentration (CC50) values were determined by using non-linear regression analysis in GraphPad PRISM® v8. Assays were performed in triplicate and repeated three times.

C. parvum = test: In vitro anti-Cryptosporidium activity in infected HCT-8 cells (immunofluorescence assay); type: cell-based, Cryptosporidium parvum; settings: for effect on in vitro proliferation and viability of C. parvum: 25 μM, added immediately after infection, 48 h of culture, vs untreated parasites; for EC50: Cryptosporidium parvum; for effect on proliferation of intracellular C. parvum in HCT-8 cells: varying concentrations, 0 h or 2 h PI, analysed 48 h PI, vs infected cultures without compound
Experimental: Once confluent, the cells were infected with 10^5 freshly excysted C. parvum sporozoites per well, immediately followed by the addition of anti-CpPyK compounds (reconstituted in DMSO) to one set of wells. Control infected cells were treated with DMSO volumes equivalent to those used for the compound-treated cultures. Paromomycin reconstituted in distilled sterile water, served as a positive control at a concentration of 200 μM. […] Briefly, the medium was removed from the culture wells, and the cells were washed two times with PBS before fixation with pre-chilled methanol-acetic acid (9:1) for 5 min at room temperature. Residual fixative was removed by rinsing the wells with PBS. Cells were rehydrated and permeabilized by washing twice with a buffer containing 0.1% Triton X-100, 0.35 M NaCl, and 0.13 M Tris-base, pH 7.6. Normal goat serum (5% in PBS) was used as a blocking agent, and the cell monolayer was stained with a fluorescein-labeled anti-C. parvum polyclonal antibody (Sporo-Glo™; Waterborne, Inc.) overnight at 4°C. The stained cells were washed twice with PBS followed by the addition of 200 μl water to each well. Plates were then imaged with an inverted fluorescence microscope using a 20× objective. The fluorescence generated by intracellular C. parvum parasites was quantified from nine microscopic fields per well of a 96-well plate using the batch process function in ImageJ version v1.50 (NIH, United States) after setting a threshold for the detection of parasites. Control wells with uninfected monolayers were included for background subtraction. Experiments were performed in triplicate and repeated at least three times.
One set of wells with confluent HCT-8 cells received CpPyK inhibitors immediately after C. parvum infection, while the same compounds were added to the other set of wells 2 h post-infection (PI). Control infected cells were treated with varying volumes of DMSO equivalent to the ones used for the compound-treated cultures. Cell monolayers were processed for immunofluorescence analysis after 48 h of incubation as described above. Samples were run in triplicate and three independent assays were performed. EC50 values were calculated using non-linear regression analysis of the mean dose-response curve data in GraphPad PRISM® v8.

[3] = Physicochemical properties adapted from PubChem; settings: based on Supplementary Table 2 properties
Source text: Supplementary Table S2. Physicochemical properties of identified CpPyK inhibitors (Adapted from: https://pubchem.ncbi.nlm.nih.gov).
NSC Molecular Molecular Number of Number of Number of Polar number IUPAC name formula weight cLog(p) Hydrogen bond Hydrogen bond rotatable surface donors acceptors bonds area (Å²) […]

Solubility = type: physicochemical; settings: solvent not stated
[4] = ref https://pubchem.ncbi.nlm.nih.gov, cited from earlier work; for Polar surface area: topological
rCpPyK = target: T1, rCpPyK (Cryptosporidium parvum, UniProt Q5CSM7); settings: previously reported for CpPyK; ref Denton et al. (1996); cited from earlier work
T1 sequence (Q5CSM7 7-532): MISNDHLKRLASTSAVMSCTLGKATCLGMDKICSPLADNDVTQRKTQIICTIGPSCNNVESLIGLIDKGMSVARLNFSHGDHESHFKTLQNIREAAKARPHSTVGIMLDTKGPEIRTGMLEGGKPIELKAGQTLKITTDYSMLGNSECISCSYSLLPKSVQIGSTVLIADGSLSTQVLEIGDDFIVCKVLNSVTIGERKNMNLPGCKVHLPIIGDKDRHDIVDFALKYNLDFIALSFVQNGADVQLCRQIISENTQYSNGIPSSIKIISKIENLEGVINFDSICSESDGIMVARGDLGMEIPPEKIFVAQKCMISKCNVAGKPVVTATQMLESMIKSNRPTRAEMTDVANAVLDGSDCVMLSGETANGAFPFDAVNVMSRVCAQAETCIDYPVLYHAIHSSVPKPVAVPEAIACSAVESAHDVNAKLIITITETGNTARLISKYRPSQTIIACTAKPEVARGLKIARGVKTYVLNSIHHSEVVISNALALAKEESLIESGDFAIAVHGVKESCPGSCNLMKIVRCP

[5] = substrate: C=C(OP(=O)(O)O)C(=O)O; test: rCpPyK enzyme kinetics on substrates (Michaelis–Menten); type: biochemical, Cryptosporidium parvum; settings: other: 6 ng/μl rCpPyK, varying substrate; pH 7.5
Experimental: as §1

[6] = substrate: Nc1ncnc2c1ncn2[C@@H]1O[C@H](COP(=O)(O)OP(=O)(O)O)[C@@H](O)[C@H]1O; test: as above; type: biochemical, Cryptosporidium parvum; settings: other: 6 ng/μl rCpPyK, varying substrate; pH 7.5
Experimental: as §1

[7] = HCT-8, read-out: Anti-C. parvum EC50, 0 h PI
[8] = HCT-8, read-out: Anti-C. parvum EC50, 2 h PI

## CN(C)c1ccc(/C=C/C(=O)c2cc(Cl)ccc2O)cc1 [NSC11437, (E)-1-(5-chloro-2-hydroxyphenyl)-3-[4-(dimethylamino)phenyl]prop-2-en-1-one]
[1]
  IC50: 156 µM
[2]
  CC50 at 24 h: 612 µM
C. parvum
  effect on in vitro proliferation and viability of C. parvum: significant inhibitory effect
  effect on proliferation of intracellular C. parvum in HCT-8 cells: significant (P < 0.05) concentration-dependent inhibitory effect
C. parvum; [7]
  EC50: 23.8 µM
C. parvum; [8]
  EC50: 27.3 µM
[3]
  conformity to Lipinski's and Veber's rules for drug-likeness: conform
Solubility
  solubility: low solubility
[4]
  Number of Hydrogen bond acceptors: 3
  Number of Hydrogen bond donors: 1
  Polar surface area: 40.5 Å²

## C=C(OP(=O)(O)O)C(=O)O [Phosphoenolpyruvate, phosphoenolpyruvate]
rCpPyK
  Km: 320 µM
  Vmax: 6.82 nmol/µg/min

## COc1cccc(/C=C2\CCc3ccccc3C2=O)c1 [NSC636718, (2E)-2-[(3-methoxyphenyl)methylidene]-3,4-dihydronaphthalen-1-one]
[1]; 6 ng/μl rCpPyK, 3 h at room temperature, read-out: Enzyme inhibition IC50
  IC50: 117 µM
[2]
  CC50 at 24 h: 106 µM
C. parvum
  effect on in vitro proliferation and viability of C. parvum: significant inhibitory effect
  effect on proliferation of intracellular C. parvum in HCT-8 cells: significant (P < 0.05) concentration-dependent inhibitory effect
C. parvum; [7]
  EC50: 33.8 µM
C. parvum; [8]
  EC50: 33.6 µM
C. parvum; HCT-8 CC50 / anti-C. parvum EC50
  Selectivity index (CC50/EC50): 3.15
[3]
  conformity to Lipinski's and Veber's rules for drug-likeness: conform
[4]
  Number of Hydrogen bond acceptors: 2
  Number of Hydrogen bond donors: 0
  Polar surface area: 26.3 Å²

B1: rCpPyK (Cryptosporidium parvum Iowa II) (protein)
chain: T1 sequence (Q5CSM7 7-532)
[5]
  Km: 1.29 (0.32^a) mM
  Vmax: 12.1 µmol/min/mg
[6]
  Km: 40 µM
  Vmax: 4.64 µmol/min/mg
